Measurements: patent publication US5726208A, “Heterocyclic tertiary amines” (Adir et Compagnie, priority 1995, dated 1998)

Test system: D2 receptor
Experiment: Binding to cloned D2 receptors ([125I]-iodosulpride displacement)
Settings: reference aminotetralines
Description: Pharmacological study STUDIES OF THE BINDING OF THE COMPOUNDS OF THE INVENTION TO D2 AND D3 RECEPTORS
The results are expressed in the form of pKi (pKi =-logKi).
The Ki value is derived from the formula Ki =IC50 /(1+L/KD), where L is the concentration of [^125 I]-iodosulpride used in the experiment and Kd its dissociation constant.
The IC50, which represents the concentration that gives a 50% inhibition of the binding of the radioligand, is calculated by non-linear regression (Simplex method).

## CCCN[C@@H]1CCc2c(OC)cccc2[C@@H]1C [(+) AJ 76]
  selectivity (D3 versus D2): 2

## CCCN(CCC)[C@@H]1CCc2c(OC)cccc2[C@@H]1C [(+) UH 232]
  selectivity (D3 versus D2): 5
